# Where a SMILES comes first, the peptide text is derived from it. Bridges are numbered along the chain shown (N, C = ends). [ ]: non-standard residue; d: D form. The star is where a group is joined. hPhe(3-Cl-4-CF3) = N[C@@H](CCc1ccc(C(F)(F)F)c(Cl)c1)C(=O)O; NPrPhe(4-CF3) = CCCN[C@@H](Cc1ccc(C(F)(F)F)cc1)C(=O)O; NMeGly(cPent) = CN[C@H](C(=O)O)C1CCCC1; NMeL = CN[C@@H](CC(C)C)C(=O)O; Morpholide = C1CN(*)CCO1; Ac5c = NC1(C(=O)O)CCCC1; Aze = O=C(O)[C@@H]1CCN1; Sar = CNCC(=O)O
# Tests used:
# [1] = target: GDP-bound NRAS wild-type protein (Homo sapiens, UniProt P01111); experiment: Binding to NRAS by surface plasmon resonance (SPR), Single Cycle Kinetics; conditions: for NRAS/KRAS (ratio of KD value with respect to NRAS to KD value with respect to KRAS) / NRAS/KRAS (ratio of KD value for NRAS to KD value for KRAS): GDP-bound NRAS wild-type vs GDP-bound KRAS wild-type
# [2] = target: GDP-bound HRAS wild-type protein (Homo sapiens, UniProt P01112); experiment: Binding to HRAS by surface plasmon resonance (SPR), Single Cycle Kinetics; conditions: for HRAS/KRAS (ratio of KD value with respect to HRAS to KD value with respect to KRAS) / HRAS/KRAS (ratio of KD value for HRAS to KD value for KRAS): GDP-bound HRAS wild-type vs GDP-bound KRAS wild-type
# [3] = KD ratio NRAS/KRAS, class symbols
# [4] = KD ratio HRAS/KRAS, class symbols
# GDP-bound HRAS wild-type protein, sequence (P01112 whole entry): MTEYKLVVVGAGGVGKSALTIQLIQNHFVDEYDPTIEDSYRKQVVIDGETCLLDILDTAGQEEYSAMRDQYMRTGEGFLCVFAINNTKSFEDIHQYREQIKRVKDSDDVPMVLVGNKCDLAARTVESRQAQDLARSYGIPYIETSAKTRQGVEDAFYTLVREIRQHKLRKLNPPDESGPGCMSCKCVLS
# GDP-bound NRAS wild-type protein, sequence (P01111 whole entry): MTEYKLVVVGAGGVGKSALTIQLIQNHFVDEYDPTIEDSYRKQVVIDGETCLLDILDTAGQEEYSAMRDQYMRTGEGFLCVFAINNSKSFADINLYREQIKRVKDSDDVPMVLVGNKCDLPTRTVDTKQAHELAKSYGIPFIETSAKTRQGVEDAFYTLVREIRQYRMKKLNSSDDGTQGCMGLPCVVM
smiles,measurement,setting,value
CCCN1C(=O)CN(C)C(=O)[C@@H]2CCN2C(=O)[C@H]([C@@H](C)CC)NC(=O)[C@H](CC(C)C)N(C)C(=O)C[C@@H](C(=O)N2CCOCC2)NC(=O)[C@H](C2CCCC2)N(C)C(=O)C2(CCCC2)NC(=O)[C@@H]2CCCN2C(=O)[C@H](CCc2ccc(C(F)(F)F)c(Cl)c2)NC(=O)CN(C)C(=O)[C@@H]1Cc1ccc(C(F)(F)F)cc1 [PP0337] ([NMeL]I[Aze][Sar][NPrPhe(4-CF3)][Sar][hPhe(3-Cl-4-CF3)]P[Ac5c][NMeGly(cPent)]D-Morpholide; lactam N-11),NRAS/KRAS (ratio of KD for GDP-bound NRAS wild-type to KD for KRAS),"[1]; KD ratio NRAS/KRAS, SPR",B (a compound having 3 or more and less than 10 is denoted as B)
same,HRAS/KRAS (ratio of KD for GDP-bound HRAS wild-type to KD for KRAS),"[2]; KD ratio HRAS/KRAS, SPR",B (a compound having 3 or more and less than 10 is denoted as B)
CCO[C@@H]1C[C@H]2C(=O)NC3(CCC3)C(=O)N(C)[C@@H](C3CCCC3)C(=O)N(C)[C@H](C(=O)N(C)CC)CC(=O)N(C)[C@@H](CC)C(=O)N[C@@H]([C@@H](C)CC)C(=O)N(C)CC(=O)N(C)[C@H]3C/C=C\CCN(C3=O)[C@@H](CC3CCCCC3)C(=O)N(C)CC(=O)N[C@@H](CCc3cc(F)c(C(F)(F)F)c(F)c3)C(=O)N2C1 [PP1552],NRAS/KRAS (ratio of KD value for GDP-bound NRAS wild-type protein to KD value for KRAS),"[1]; SPR, KD ratio class",A (a compound having 10 or more and less than 20 is denoted as A)
same,HRAS/KRAS (ratio of KD value for GDP-bound HRAS wild-type protein to KD value for KRAS),"[2]; SPR, KD ratio class",A (a compound having 10 or more and less than 20 is denoted as A)
CCO[C@@H]1C[C@H]2C(=O)NC3(CCCC3)C(=O)N(C)[C@@H](C3CCCC3)C(=O)N(C)[C@H](C(=O)N3CCOCC3)CC(=O)N(C)[C@@H](COC)C(=O)N[C@@H]([C@@H](C)CC)C(=O)N(C)CC(=O)N(C)[C@H]3CCCCCN(C3=O)[C@@H](Cc3ccc(C(F)(F)F)cc3)C(=O)N(C)CC(=O)N[C@@H](CCc3cc(F)c(C(F)(F)F)c(F)c3)C(=O)N2C1 [PP0841],NRAS/KRAS (ratio of KD value with respect to NRAS to KD value with respect to KRAS),"[1]; KD ratio, SPR",B (a compound having 3 or more and less than 10 is denoted as B)
same,HRAS/KRAS (ratio of KD value with respect to HRAS to KD value with respect to KRAS),"[2]; KD ratio, SPR",B (a compound having 3 or more and less than 10 is denoted as B)
CCCN(C)C(=O)[C@@H]1CC(=O)N(C)[C@@H](C2CC2)C(=O)N[C@@H]([C@@H](C)CC)C(=O)N(C)CC(=O)N(C)[C@H]2C/C=C\CCN(C2=O)[C@@H](Cc2ccc(C(F)(F)F)cc2)C(=O)N(C)CC(=O)N[C@@H](CCc2cc(F)c(C(F)(F)F)c(F)c2)C(=O)N2C[C@H](OCC)C[C@H]2C(=O)NC2(CC(C)(C)C2)C(=O)N(C)[C@@H](C2CCCC2)C(=O)N1C [PP2037],NRAS/KRAS (ratio of KD value with respect to NRAS to KD value with respect to KRAS),[1]; SPR,A (a compound having 10 or more and less than 20 is denoted as A)
same,HRAS/KRAS (ratio of KD value with respect to HRAS to KD value with respect to KRAS),[2]; SPR,A (a compound having 10 or more and less than 20 is denoted as A)
CCO[C@@H]1C[C@H]2C(=O)NC3(CCC3)C(=O)N(C)[C@@H](C3CCCC3)C(=O)N(C)[C@H](C(=O)N3CCOCC3)CC(=O)N(C)[C@@H](Cc3ccccc3C)C(=O)N[C@@H]([C@@H](C)CC)C(=O)N(C)CC(=O)N(C)[C@H]3CCCCCN(C3=O)[C@@H](Cc3ccc(C(F)(F)F)cc3)C(=O)N(C)CC(=O)N[C@@H](CCc3cc(F)c(C(F)(F)F)c(F)c3)C(=O)N2C1 [PP0931],NRAS/KRAS (ratio of KD value with respect to NRAS to KD value with respect to KRAS),"[1]; KD ratio, SPR",A (a compound having 10 or more and less than 20 is denoted as A)
same,HRAS/KRAS (ratio of KD value with respect to HRAS to KD value with respect to KRAS),"[2]; KD ratio, SPR",B (a compound having 3 or more and less than 10 is denoted as B)
CC[C@H](C)[C@@H]1NC(=O)[C@H](CC)N(C)C(=O)C[C@@H](C(=O)N(C)C)N(C)C(=O)[C@H](C2CCCC2)N(C)C(=O)C2(CC(C)(C)C2)NC(=O)[C@@H]2C[C@@H](C)CN2C(=O)[C@H](CCc2ccc(C(F)(F)F)c(OC)c2)NC(=O)CN(C)C(=O)[C@H](Cc2ccc(C)cc2)N2CC/C=C\C[C@@H](C2=O)N(C)C(=O)CN(C)C1=O [PP1838],NRAS/KRAS (ratio of KD value for NRAS to KD value for KRAS),"[1]; KD ratio, SPR",A (a compound having 10 or more and less than 20 is denoted as A)
same,HRAS/KRAS (ratio of KD value for HRAS to KD value for KRAS),"[2]; KD ratio, SPR",A (a compound having 10 or more and less than 20 is denoted as A)
CCO[C@@H]1C[C@H]2C(=O)NC3(CCC3)C(=O)N(C)[C@@H](C3CCCC3)C(=O)N(C)[C@H](C(=O)N(C)C)CC(=O)N(C)[C@@H](CC)C(=O)N[C@@H]([C@@H](C)CC)C(=O)N[C@@H](C)C(=O)N(C)[C@H]3C/C=C\CCN(C3=O)[C@@H](Cc3ccc(C(F)(F)F)cc3)C(=O)N(C)CC(=O)N[C@@H](CCc3cc(F)c(C(F)(F)F)c(F)c3)C(=O)N2C1 [PP1065],NRAS/KRAS (ratio of KD value with respect to NRAS to KD value with respect to KRAS),"[1]; KD ratio, SPR",A (a compound having 10 or more and less than 20 is denoted as A)
same,HRAS/KRAS (ratio of KD value with respect to HRAS to KD value with respect to KRAS),"[2]; KD ratio, SPR",B (a compound having 3 or more and less than 10 is denoted as B)
CCO[C@@H]1C[C@H]2C(=O)NC3(CC(C)(C)C3)C(=O)N(C)[C@@H](C(CC)CC)C(=O)N(C)[C@H](C(=O)N(C)C)CC(=O)N(C)[C@@H](C(C)C)C(=O)N[C@@H]([C@@H](C)CC)C(=O)N(C)CC(=O)N(C)[C@H]3C/C=C\CCN(C3=O)[C@@H](CC3CCC(F)(F)CC3)C(=O)N(C)CC(=O)N[C@@H](CCc3cc(F)c(C(F)(F)F)c(F)c3)C(=O)N2C1 [PP2481],NRAS/KRAS (ratio of KD value with respect to NRAS to KD value with respect to KRAS),[1]; SPR,A (a compound having 10 or more and less than 20 is denoted as A)
same,HRAS/KRAS (ratio of KD value with respect to HRAS to KD value with respect to KRAS),[2]; SPR,A (a compound having 10 or more and less than 20 is denoted as A)
CC[C@H](C)[C@@H]1NC(=O)[C@H](CC(C)C)N(C)C(=O)C[C@@H](C(=O)N2CCOCC2)N(C)C(=O)[C@H](C2CCC2)N(C)C(=O)C2(CCCC2)NC(=O)[C@@H]2CCCN2C(=O)[C@H](CCc2cc(F)c(C(F)(F)F)c(F)c2)NC(=O)CN(C)C(=O)[C@H](Cc2ccc(C(F)(F)F)cc2)N2CCCC[C@@H](C2=O)N(C)C(=O)CN(C)C1=O [PP0566],NRAS/KRAS (ratio of KD value with respect to GDP-bound NRAS wild-type protein to KD value with respect to KRAS),"[1]; KD ratio NRAS/KRAS, SPR",B (a compound having 3 or more and less than 10 is denoted as B)
same,HRAS/KRAS (ratio of KD value with respect to GDP-bound HRAS wild-type protein to KD value with respect to KRAS),"[2]; KD ratio HRAS/KRAS, SPR",B (a compound having 3 or more and less than 10 is denoted as B)
CCO[C@@H]1C[C@H]2C(=O)NC3(CC(C)(C)C3)C(=O)N(C)[C@@H](C(CC)CC)C(=O)N(C)[C@H](C(=O)N(C)C)CC(=O)N(C)[C@H]3CCC/C=C/c4ccc(cc4)C[C@@H](C(=O)N(C)CC(=O)N[C@@H](CCc4ccc(Cl)c(Cl)c4)C(=O)N2C1)N1CC/C=C\C[C@@H](C1=O)N(C)C(=O)CN(C)C(=O)[C@H]([C@@H](C)CC)NC3=O [PP2580],NRAS/KRAS (ratio of KD value with respect to GDP-bound NRAS wild-type protein to KD value with respect to KRAS),[1]; [3],AA (a compound having 20 or more is denoted as AA)
same,HRAS/KRAS (ratio of KD value with respect to GDP-bound HRAS wild-type protein to KD value with respect to KRAS),[2]; [4],A (a compound having 10 or more and less than 20 is denoted as A)
CC[C@H](C)[C@@H]1NC(=O)[C@H](C2CC2)N(C)C(=O)C[C@@H](C(=O)N(C)C)N(C)C(=O)[C@H](C2CCCC2)N(C)C(=O)C2(CCCC2)N(C)C(=O)[C@@H]2C[C@@H](C)CN2C(=O)[C@H](CCc2cc(F)c(C(F)(F)F)c(F)c2)NC(=O)CN(C)C(=O)[C@H](Cc2ccc(C)cc2)N2CC/C=C\C[C@@H](C2=O)N(C)C(=O)CN(C)C1=O [PP1813],NRAS/KRAS (ratio of KD value for NRAS to KD value for KRAS),"[1]; KD ratio, SPR",A (a compound having 10 or more and less than 20 is denoted as A)
same,HRAS/KRAS (ratio of KD value for HRAS to KD value for KRAS),"[2]; KD ratio, SPR",B (a compound having 3 or more and less than 10 is denoted as B)
CCC[C@H]1C(=O)N[C@@H](CC(C)C)C(=O)N(CC)CC(=O)N(C)[C@H]2C/C=C\CCN(C2=O)[C@@H](Cc2ccc(C)cc2)C(=O)N(C)CC(=O)N[C@@H](CCc2ccc(C(F)(F)F)c(OC)c2)C(=O)N2C[C@H](OCC)C[C@H]2C(=O)NC2(CC(C)(C)C2)C(=O)N(C)[C@@H](C2CCCC2)C(=O)N(C)[C@H](C(=O)N(C)C)CC(=O)N1C [PP2518],NRAS/KRAS (ratio of KD value with respect to NRAS to KD value with respect to KRAS),[1]; SPR,A (a compound having 10 or more and less than 20 is denoted as A)
same,HRAS/KRAS (ratio of KD value with respect to HRAS to KD value with respect to KRAS),[2]; SPR,A (a compound having 10 or more and less than 20 is denoted as A)
CCO[C@@H]1C[C@H]2C(=O)NC3(CCC3)C(=O)N(C)[C@@H](C(CC)CC)C(=O)N(C)[C@H](C(=O)N3CCCCC3)CC(=O)N(C)[C@H]3CCC/C=C/c4ccc(cc4)C[C@@H](C(=O)N(C)CC(=O)N[C@@H](CCc4ccc(Cl)c(Cl)c4)C(=O)N2C1)N1CC/C=C\C[C@@H](C1=O)N(C)C(=O)CN(C1CC1)C(=O)[C@H]([C@@H](C)CC)NC3=O [PP3039],NRAS/KRAS (ratio of KD value with respect to GDP-bound NRAS wild-type protein to KD value with respect to KRAS),"[1]; KD ratio NRAS/KRAS, SPR, GDP-bound wild-type proteins",AA (a compound having 20 or more is denoted as AA)
same,HRAS/KRAS (ratio of KD value with respect to GDP-bound HRAS wild-type protein to KD value with respect to KRAS),"[2]; KD ratio HRAS/KRAS, SPR, GDP-bound wild-type proteins",A (a compound having 10 or more and less than 20 is denoted as A)
CCC[C@H]1C(=O)N[C@@H]([C@@H](C)CC)C(=O)N(C2CC2)CC(=O)N(C)[C@H]2C/C=C\CCN(C2=O)[C@@H](CC2CCC(F)(F)CC2)C(=O)N(C)CC(=O)N[C@@H](CCc2cc(F)c(C(F)(F)F)c(F)c2)C(=O)N2C[C@H](OCC)C[C@H]2C(=O)NC2(CC(C)(C)C2)C(=O)N(C)[C@@H](C2CCCC2)C(=O)N(C)[C@H](C(=O)N(C)C)CC(=O)N1C [PP2566],NRAS/KRAS (ratio of KD value with respect to GDP-bound NRAS wild-type protein to KD value with respect to KRAS),[1]; [3],A (a compound having 10 or more and less than 20 is denoted as A)
same,HRAS/KRAS (ratio of KD value with respect to GDP-bound HRAS wild-type protein to KD value with respect to KRAS),[2]; [4],B (a compound having 3 or more and less than 10 is denoted as B)
